Results published in patent US6592845B2, “Estrogens for treating ALS” (Parker Hughes Institute, priority 1999, dated 2003).

System: Heterozygous transgenic mice carrying the human SOD-1 (G93A)
Experiment: Murine model of familial ALS (FALS): monitoring for limb paralysis and death, life-table analysis
Format: in vivo
Details: 16 mg/kg twice a day, everyday except weekends
Method: (§1) Heterozygous transgenic mice carrying the human SOD-1 (G93A) were obtained from Jackson Laboratory (Bar Harbor, Me., USA). These mice were monitored everyday for limbic paralysis and death. Onset of FALS was defined as the first day upon which limbic paralysis was observed. Life-table analysis was performed using Statview, Abacus Concepts, Inc. (Berkeley, Calif.).
There are currently several transgenic animal models of ALS (Borchelt et al., 1998, Transgenic mouse models of Alzheimer's disease and amyotrophic lateral sclerosis, Brain Pathology, 8: 735-757). The G93A HuSOD1 is a well established animal model of familial ALS which has been described previously in detail (Dal Canto M C, Gurney Me., 1994, The development of central nervous system pathology in a murine transgenic model of human amyotrophic lateral sclerosis. Am J. Pathol 145: 1-9; Gurney et al., 1994, Motor neuron degeneration in mice that express a human Cu,Zn superoxide dismutase mutation, Science 264:1772-1775). Levels of SOD1 activity are elevated to about five times above that of endogenous SOD 1 in these mice. In this model, the mice develop hind limb weakness, a coarse coat, poor grooming, and reduced stride length at about 3 months of age. By five months of age, a majority of the mice are moribund.
as §1, with “USA). The mice were treated either with vehicle or genistein at 16 mg/kg twice a day, everyday, except on weekends. The” for “USA). These”, “for limb” for “for limbic”, “Calif.). […]” for “Calif.).”
The ability of 4-(4′-hydroxylphenyl)-amino-6,7-dimethoxyquinazoline (P131) and 2,4,4′-trihydroxy deoxybenzoin (DDE-17) to protect against neural degeneration in familial ALS was evaluated using the methods described above for Example 2. […]

[1] = male FALS mice, compared with vehicle-treated males

SMILES: O=c1c(-c2ccc(O)cc2)coc2cc(O)cc(O)c12 [Genistein, genistein]
- disease onset (first day upon which limbic paralysis was observed) (female FALS mice, compared with untreated (vehicle) females): did not exhibit a delay
- disease onset (first day upon which limbic paralysis was observed) [1]: delayed
- mortality [1]: delayed
